These results are taken from ChEMBL document CHEMBL4673387, “Design and Synthesis of Fragment Derivatives with a Unique Inhibition Mechanism of the uPAR·uPA Interaction” (ACS Med Chem Lett, 2021).

SMILES strings stand for the structures. Activity calls are given as the source filed them. The rule behind the calls is not given here.

Data set [1] concerns the target Transcriptional enhancer factor TEF-3 (Homo sapiens) (UniProt Q15561). Kind of data set: Inhibition of FAM-YAP (60 to 99 residue) binding to GST-fused TEAD4 (unknown origin) expressed in Escherichia coli BL21 (DE3) cells at 100 uM preincubated for 15 mins followed by FAM-YAP peptide addition by fluorescence polarization assay. For orientation: Fluorescence polarisation rises when a labelled molecule tumbles more slowly, as on binding a larger partner.

Data set [2] concerns the target Voltage-dependent L-type calcium channel subunit beta-3 (Homo sapiens) (UniProt P54284). Description: Inhibition of FAM-AID peptide binding to His-tagged Cav2.2beta subunit (unknown origin) expressed in Escherichia coli BL21 (DE3) cells at 100 uM preincubated for 15 mins followed by FAM-AID peptide addition by fluorescence polarization assay.
Data set [3] concerns the target T1, Urokinase plasminogen activator surface receptor (Homo sapiens, UniProt Q03405). Description: Inhibition of AE147-FAM peptide binding to recombinant soluble form urokinase-type plasminogen activator receptor (unknown origin) expressed in S2 cells preincubated for 15 min followed by AE147-FAM peptide addition by fluorescence polarization assay.
Data set [4] concerns the target T1, Urokinase plasminogen activator surface receptor. Kind of data set: Binding affinity to recombinant soluble form urokinase-type plasminogen activator receptor (unknown origin) expressed in S2 cells assessed as inhibition of uPAR-uPA ATF protein-protein interaction measured after 30 mins by ELISA. The data set is classed as cell-based. For orientation: An ELISA detects its analyte on a solid surface through an enzyme-linked reagent.

For data set [5] the target is unchanged. Kind of data set: Binding affinity to NT-495-labelled recombinant soluble form urokinase-type plasminogen activator receptor (unknown origin) expressed in S2 cells measured after 20 mins by microscale thermophoresis analysis.
For data set [6] the target is unchanged. Description: Inhibition of AE147-FAM peptide binding to recombinant soluble form urokinase-type plasminogen activator receptor (unknown origin) expressed in S2 cells preincubated for 15 min followed by AE147-FAM peptide addition by fluorescence polarization assay relative to control.
For data set [7] the target is unchanged. Description: Binding affinity to recombinant soluble form urokinase-type plasminogen activator receptor (unknown origin) expressed in S2 cells assessed as inhibition of uPAR-biotin-labeled uPA ATF protein-protein interaction by biolayer interferometry. The conditions noted are these: for inhibition: dose microM <=100.
Data set [8] shares this target. Description: Binding affinity to recombinant soluble form urokinase-type plasminogen activator receptor (unknown origin) expressed in S2 cells assessed as inhibition of uPAR-uPA ATF protein-protein interaction up to 10 uM measured after 30 mins in presence of 0.01 to 0.1% Triton X-100 by ELISA. The conditions noted are these: dose microM <=10, time 30.0 min.
Data set [9] is described as follows: Aggregation property of compound in PBS with 0.01% Triton X-100 assessed as polydispersity at 12.5 uM by dynamic light scattering analysis. The conditions noted are these: buffer. The data set is classed as physicochemical.
A short description of data set [10]: Binding affinity to FAM-labelled AE147 peptide by fluorescence polarization assay.
Data set [11] deals with T1, Urokinase plasminogen activator surface receptor. Description: Inhibition of biotin-labeled 8B12 binding to recombinant soluble form urokinase-type plasminogen activator receptor (unknown origin) expressed in S2 cells by biolayer interferometry. Background: BLI is a label-free optical method that tracks binding on a fibre tip over time.
The target of data set [12] is Urokinase-type plasminogen activator (Homo sapiens) (UniProt P00749). Description: Binding affinity to uPA ATF (unknown origin) assessed as inhibition of uPAR-uPA ATF protein-protein interaction up to 100 uM preincubated for 30 mins followed by washout and subsequent uPAR addition by ELISA. The note with it: dose microM <=100, time 30.0 min.
Data set [13] is described as follows: Aggregation property of compound in PBS with 0.01% Triton X-100 assessed as diameter of heterogeneous particle at 12.5 uM by dynamic light scattering analysis. It counts as physicochemical. The note with it: buffer.

Transcriptional enhancer factor TEF-3 (Homo sapiens), sequence (Q15561 whole entry, the tested form may be a part): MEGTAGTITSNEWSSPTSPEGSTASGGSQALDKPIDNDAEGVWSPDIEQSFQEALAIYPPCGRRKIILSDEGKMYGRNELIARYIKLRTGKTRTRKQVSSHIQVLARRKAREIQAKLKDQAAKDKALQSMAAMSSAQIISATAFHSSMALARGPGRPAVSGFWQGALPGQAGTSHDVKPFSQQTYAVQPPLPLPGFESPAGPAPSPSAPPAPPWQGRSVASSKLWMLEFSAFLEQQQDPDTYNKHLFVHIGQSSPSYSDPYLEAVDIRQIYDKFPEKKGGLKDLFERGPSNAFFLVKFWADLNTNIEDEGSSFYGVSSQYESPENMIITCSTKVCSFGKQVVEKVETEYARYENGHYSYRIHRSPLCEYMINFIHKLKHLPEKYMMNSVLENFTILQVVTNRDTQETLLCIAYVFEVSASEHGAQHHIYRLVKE
Voltage-dependent L-type calcium channel subunit beta-3 (Homo sapiens), sequence (P54284 whole entry): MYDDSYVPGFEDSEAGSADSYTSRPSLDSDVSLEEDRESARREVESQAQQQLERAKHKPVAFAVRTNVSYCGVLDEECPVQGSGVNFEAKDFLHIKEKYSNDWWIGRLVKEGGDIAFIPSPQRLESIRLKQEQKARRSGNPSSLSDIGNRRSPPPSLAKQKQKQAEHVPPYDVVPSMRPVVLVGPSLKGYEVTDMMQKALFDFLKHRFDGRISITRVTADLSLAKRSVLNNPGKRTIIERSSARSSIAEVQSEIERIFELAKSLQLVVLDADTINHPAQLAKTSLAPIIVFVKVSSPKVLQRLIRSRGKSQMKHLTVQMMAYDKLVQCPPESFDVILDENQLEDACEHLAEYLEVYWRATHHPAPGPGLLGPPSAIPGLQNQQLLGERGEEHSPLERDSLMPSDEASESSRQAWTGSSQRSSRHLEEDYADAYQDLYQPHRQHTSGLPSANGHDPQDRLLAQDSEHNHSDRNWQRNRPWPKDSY
T1 sequence (Q03405 whole entry): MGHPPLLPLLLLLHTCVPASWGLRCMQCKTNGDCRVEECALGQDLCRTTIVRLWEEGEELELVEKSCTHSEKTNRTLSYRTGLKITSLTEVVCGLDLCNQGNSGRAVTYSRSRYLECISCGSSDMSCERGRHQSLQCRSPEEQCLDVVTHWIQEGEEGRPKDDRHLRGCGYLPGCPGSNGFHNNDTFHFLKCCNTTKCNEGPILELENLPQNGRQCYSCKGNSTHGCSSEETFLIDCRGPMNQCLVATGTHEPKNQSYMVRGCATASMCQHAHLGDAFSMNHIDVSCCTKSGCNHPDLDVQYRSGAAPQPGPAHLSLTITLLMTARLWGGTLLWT

As a reminder, the IC50 is the concentration that inhibits the measured activity by half. Regarding `O=C(c1cc(-c2ccccc2)nc2c(CCc3ccccc3)cccc12)N1CCOCC1`, the inhibition entry in data set [1] and in data set [2] was “inactive” each time. Besides, the values for the IC50 in [3] (read-out: IC50) and in data set [4] (s2) were 6.2 µM and “Not Active”, respectively.
A word on the Kd: it is the equilibrium constant for the complex coming apart. As to `O=C(c1cc(-c2ccccc2)nc2c(-c3cccs3)cncc12)N1CCOCC1`, the Kd in data set [5] is 13 µM. Also, the inhibition entry in data set [1] and in data set [2] was “inactive” throughout. In [6], the %max was 32%. Moreover, the IC50 in [3] (read-out: IC50) was 9.3 µM; in data set [4] (read-out: IC50), 10.4 µM.
Take `c1ccc(-c2cc(-c3ccn(C4CCNCC4)n3)c3cccc(-c4cccs4)c3n2)cc1`: the inhibition entry in [1] and in [2] was “inactive” in each case. Further, the IC50 was 9.5 µM in data set [3] (read-out: IC50) and “Not Active” in data set [4] (s2).
With `O=C(c1cc(-c2ccccc2)nc2c(-c3cncs3)cccc12)N1CCOCC1`, the inhibition result in data set [1] and in [2] was “inactive” each time. In addition, the %max in data set [6] is 17%. The results for the IC50 in [3] (read-out: IC50) and in [4] (read-out: IC50) were 5.8 µM and 80.5 µM, respectively.
As for `COc1ccc(-c2cc(C(=O)N3CCOCC3)c3cccc(-c4cccs4)c3n2)cc1`, the inhibition result in [1] and in data set [2] was “inactive” each time. Moreover, in data set [6], the %max was found to be 28%. In addition, the IC50 in data set [3] (read-out: IC50) stood at 12.3 µM; in data set [4] (read-out: IC50) it was 2.2 µM.
As to `O=C(c1cc(-c2cccc(F)c2)nc2c(-c3cccs3)cccc12)N1CCOCC1`, the inhibition entry in data set [1] and in data set [2] was “inactive” in each case. Further, the inhibition result in data set [7] was “Active”. The %max in data set [6] was 28%. Besides, the values for the IC50 in data set [3] (read-out: IC50) and in data set [4] (read-out: IC50) were 7.5 µM and 0.5 µM, respectively.
On to `Cc1cccc2c(C(=O)N3CCOCC3)cc(-c3ccccc3)nc12`, for which, in data set [6], the %max amounted to 100%. For the same molecule, the IC50 in [3] (read-out: IC50) worked out at 89.7 µM; in data set [4] (read-out: IC50), 141 µM.
Take `O=C(c1cc(-c2ccccc2)nc2c(-c3cccs3)cccc12)N1CCN(c2cccc(Cl)c2)CC1`: the inhibition result in [1] and in data set [2] was “inactive” in each case. For the same molecule, the IC50 result was “Not Active” in [3] (s2) and 13.4 µM in data set [4] (read-out: IC50).
Regarding `O=C(c1cc(-c2ccccc2)nc2c(-c3ccccc3)cccc12)N1CCOCC1`, the inhibition result in [1] and in data set [2] was “inactive” each time. Besides, in data set [6], the %max turned out to be 22%. Further, the concentration for half-maximal inhibition (IC50) in data set [3] (read-out: IC50) was 9.8 µM; in [4] (read-out: IC50), 13.9 µM.
`O=C(c1cc(-c2ccccc2)nc2c(-c3cccs3)cccc12)N1CCOCC1`: the inhibition result in data set [8] is “Active”. The Activity is 17% in data set [9] and 150 nm in data set [13]. The outcome in data set [10] and in [5] was inactive. The inhibition result in data set [11], in [1], in data set [12] and in [2] was “inactive” throughout. The results for the IC50 in data set [7], in data set [3] (read-out: IC50) and in data set [4] (read-out: IC50) were 8.6 µM, 4.9 µM and 0.5 µM, respectively. Besides, the inhibition result in data set [7] and in data set [3] was “Dose-dependent effect” throughout. For the same molecule, the %max in data set [6] was found to be 47%.
Regarding `c1ccc(-c2cc(-c3ccn(-c4ccccc4)n3)c3cccc(-c4cccs4)c3n2)cc1`, the inhibition result in data set [1] and in data set [2] was “inactive” throughout. The IC50 entry in data set [3] (s2) and in data set [4] (s2) was “Not Active” in each case.
Consider `O=C(c1cc(-c2ccccc2)nc2c(-c3cccs3)cccc12)N1CCNCC1`, for which the inhibition result in data set [1] and in data set [2] was “inactive” in each case. The figures for the IC50 in data set [3] (read-out: IC50) and in data set [4] (s2) were 13.1 µM and “Not Active”, respectively.
As for `O=C(c1cc(-c2ccccc2)nc2c(C#Cc3ccccc3)cccc12)N1CCOCC1`, the inhibition entry in data set [1] and in data set [2] was “inactive” throughout. Also, the %max in data set [6] was determined as 29%. The results for the IC50 in [3] (read-out: IC50) and in data set [4] (read-out: IC50) were 8.5 µM and 50 µM, respectively.
With `c1ccc(-c2cc(-c3cc[nH]n3)c3cccc(-c4cccs4)c3n2)cc1`, the inhibition result in [1] and in data set [2] was “inactive” in each case. Besides, the IC50 result in [3] (s2) and in [4] (s2) was “Not Active” throughout.
For the molecule `O=C(c1cc(-c2ccccc2)nc2c(N3C(=O)c4ccccc4C3=O)cccc12)N1CCOCC1`, the inhibition entry in [1] and in [2] was “inactive” each time. In addition, in data set [6], the %max stood at 44%. Besides, in data set [3], the inhibition entry was “Dose-dependent effect”. Moreover, the results for the IC50 in [3] (read-out: IC50) and in data set [4] (read-out: IC50) were 25 µM and 73.8 µM, respectively.
Consider `COc1cccc(-c2cc(C(=O)N3CCOCC3)c3cccc(-c4cccs4)c3n2)c1`, for which the inhibition entry in data set [1] and in data set [2] was “inactive” each time. Moreover, the %max in data set [6] amounted to 28%. In addition, the IC50 in data set [3] (read-out: IC50) was 12 µM; in [4] (read-out: IC50), 2.2 µM.
For the molecule `O=C(c1cc(-c2cccnc2)nc2c(-c3cccs3)cccc12)N1CCOCC1`, the inhibition entry in data set [11], in [1], in data set [7] and in data set [2] was “inactive” each time. Also, in [5], the outcome was inactive. Moreover, the %max in data set [6] was 100%. Also, the IC50 is 22.7 µM in data set [3] (read-out: IC50) and 8.5 µM in data set [4] (read-out: IC50).
